According to US20230250070A1, “DIHYDROOXAZOLE AND THIOUREA DERIVATIVES MODULATING THE NLRP3 INFLAMMASOME PATHWAY” (AC IMMUNE SA, priority 2020, published 2023):

Tests used:
[1] = system: NLRP3 inflammasome pathway; assay: NLRP3 inflammasome pathway activation assay, MSU stimulation, IL-1β release (AlphaLISA); type: cell-based; conditions: PMA-differentiated, LPS-primed human monocyte-like cells, MSU 150 µg/ml for 3 h
Procedure: (§1) The following assays were used to determine the inhibitory activity of test compounds on the NLRP3 inflammasome pathway using common stimuli Nigericin (Invivogen) or monosodium urate crystals (MSU) (Invivogen).
(§2) Human monocyte-like cells were cultured in RPMI-1640 Glutamax medium supplemented with 10% heat inactivated FCS and 50 U/ml penicillin-streptomycin (Life Technologies).
(§3) Human monocyte-like cells were seeded at 75000 per well in a 96-well plate and were differentiated overnight into macrophages with 10 ng/ml PMA (Phorbol Myristate Acetate). The following day, medium containing 10 ng/ml LPS (Lipopolysaccharide) were added. After 3 hours of LPS priming, concentrations of test compound in the range from 100 µM to 6 nM were added 30 min prior to NLRP3 inflammasome pathway stimulation with Nigericin 3.75 µM or MSU 150 µg/ml for 3 h.
(§4) For IL-1β quantification, supernatants were analyzed using AlphaLISA kits according to the manufacturer’s instructions (Perkin Elmer AlphaLISA AL220F). Briefly, in a 384-well OptiPlate™ microplate, 5 µl of sample was mixed, with 20 µl of AlphaLISA Anti-Analyte Acceptor beads (10 µg/mL final) and Biotinylated Antibody Anti-Analyte (1 nM final). Then, incubated 60 minutes at RT, then 25 µL of 2X SA-Donor beads (40 µg/mL final) were added and incubated 30 minutes at RT in the dark. Reading was done using an EnVision-Alpha Reader (PerkinElmer).
(§5) IC50(concentration corresponding to 50% inhibition) were determined using GraphPad Prism 8.

[2] = system: NLRP3 inflammasome pathway; assay: Human whole blood assay (LPS-ATP), IL-1β levels by AlphaLISA; type: cell-based; conditions: LPS priming, ATP activation 1 h, IL-1β in plasma
Procedure: • Preliminary blood hemolysis assessment was performed before running the assay. Blood samples were centrifuged at 1000 g for 10 min. Then, 50 to 100 µL of blood were transferred into Corning™96-Well Clear flat bottom plate. Hemolysis was assessed via Tecan at 414 nm wavelength. Hemolysis O.D. values should be lower than 1. • Add 10 µL LPS 9× or CTRL following plate layout. • Add 80 µL of each whole blood/well in PP low-bind 96-well plate. • Incubate for 2h30 to 3 h at 37° C. and 5% CO2. • Add 10 µL of compounds 10× or control in wells following plate layout. • Incubate for 30 min at 37° C. and 5% CO2. • Add 11 µL ATP 10× or control in all wells following plate layout. • Incubate for 1 h at 37° C. and 5% CO2. • Collect 1 h timepoint → Centrifuge the plate 1000 g 10 min, collect the plasma (40 to 50 µL) and store at -20° C. • Measure IL-1β levels by AlphaLISA
as §4, §5

[3] = system: NLRP3 inflammasome pathway; assay: LPS-ATP induced peritonitis mouse model, IL-1β in peritoneal lavage; type: in vivo, C57BL/6 female mice; conditions: for % IL-1 beta inhibition vs vehicle (peritoneal lavage samples): mice, intraperitoneal 1 mg/kg or 3 mg/kg (dose not given), 15 min before ATP; for inhibition of IL-1β release in peritoneal lavage samples (FIG. 1): mice dosed 1 mg/kg or 3 mg/kg by intraperitoneal injection, n=6, p<0.0001 vs vehicle-treated group
Procedure: C57BL/6 female mice aged 6 to 8 weeks were randomized into experimental groups. Mice were challenged intraperitoneally with 50 µg/kg LPS. Two hours later, mice received i.p. 200 µL of ATP (Adenosine TriPhosphate) 50 mM, pH 7.2. Compounds were administered intraperitoneally at 1 mg/kg or 3 mg/kg, 15 minutes before ATP injection. Thirty minutes after ATP injection, animals were sacrificed by CO2. Cardiac blood was collected through heart puncture. Peritoneal lavage was performed with a total volume of 4 mL of sterile saline solution with intact peritoneum. IL-1b levels were assessed in peritoneal lavage samples via AlphaLisa. Results were expressed as % reduction compared to vehicle-treated group.
as §4

[4] = system: NLRP3 inflammasome pathway; assay: NLRP3 inflammasome pathway activation assay, Nigericin stimulation, IL-1β release (AlphaLISA); type: cell-based; conditions: PMA-differentiated, LPS-primed human monocyte-like cells, Nigericin 3.75 µM for 3 h
Procedure: as §1, §2, §3, §4, §5

O=C(O)C1(c2nccs2)CN=C(Nc2c3c(cc4c2CCC4)CCC3)O1 (stereo not drawn) [Example 24, 2-((1,2,3,5,6,7-hexahydro-s-indacen-4-yl)amino)-5-(thiazol-2-yl)-4,5-dihydrooxazole-5-carboxylic acid]
IC50 [1]: 1000 to 10000 nM
IC50 [2]: 1000 to 10000 nM

O=C(OC1CCCC1)C1(c2ccon2)CN=C(Nc2c3c(cc4c2CCC4)CCC3)O1 (stereo not drawn) [Example 58, Cyclopentyl 2-((1,2,3,5,6,7-hexahvdro-s-indacen-4-vl)amino)-5-(isoxazol-3-yl)-4,5-dihydrooxazole-5-carboxylate]
IC50 [1]: < 1000 nM
IC50 [2]: 1000 to 10000 nM

CCOC(=O)C1(c2ccon2)CN=C(Nc2c3c(cc4c2CCC4)CCC3)O1 (single isomer, unassigned) [Example 21Bb]
IC50 [1]: < 1000 nM
IC50 [2]: < 1000 nM
% IL-1 beta inhibition vs vehicle (peritoneal lavage samples) [3]: 73%

CC(C)OC(=O)C1(c2ccon2)CN=C(Nc2c3c(cc4c2CCC4)CCC3)O1 (single isomer, unassigned) [Example 59, isopropyl 2-((1,2,3,5,6,7-hexahydro-s-indacen-4-yl)amino)-5-(isoxazol-3-yl)-4,5-dihydrooxazole-5-carboxylate]
IC50 [1]: < 1000 nM
IC50 [2]: 1000 to 10000 nM

CC(C)(O)c1cc(C2(C(=O)O)CN=C(Nc3c4c(cc5c3CCC5)CCC4)O2)no1 (stereo not drawn) [Example 23, 2-((1,2,3,5,6,7-hexahydro-s-indacen-4-yl)amino)-5-(5-(2-hydroxypropan-2-yl)isoxazol-3-yl)-4,5-dihydrooxazole-5-carboxylic acid]
IC50 [4]: < 1000 nM
IC50 [2]: 1000 to 10000 nM
inhibition of IL-1β release in peritoneal lavage samples (FIG. 1) [3]: significant inhibition
% IL-1 beta inhibition vs vehicle (peritoneal lavage samples) [3]: >99%

CCOC(=O)C1(c2ccccc2)CN=C(Nc2c3c(cc4c2CCC4)CCC3)O1 (stereo not drawn) [Example 2, Ethyl 2-((1,2,3,5,6,7-hexahydro-s-indacen-4-yl)amino)-5-phenyl-4,5-dihvdrooxazole-5-carboxylate]
IC50 [1]: 1000 to 10000 nM
IC50 [4]: 1000 to 10000 nM

CCOC(=O)C(O)(CNC(=S)Nc1c2c(cc3c1CCC3)CCC2)c1cc(C(C)(C)O)on1 (single isomer, unassigned) [Example 14a, Ethyl 3-(3-(1,2,3,5,6,7-hexahydro-s-indacen-4-yl)thioureido)-2-hydroxy-2-(5-(2-hydroxypropan-2-yl)isoxazol-3-yl)propanoate]
IC50 [1]: < 1000 nM
IC50 [4]: < 1000 nM

CCOC(=O)C1(c2cccc(Cl)c2)CN=C(Nc2c3c(cc4c2CCC4)CCC3)O1 (stereo not drawn) [Example 13, Ethyl 5-(3-chlorophenyl)-2-((1,2,3,5,6,7-hexahydro-s-indacene-4-yl)amino)-4,5-dihvdrooxazole-5-carboxylate]
IC50 [1]: < 1000 nM
IC50 ([4]; Homo sapiens, 3 h): < 1000 nM

CCOC(=O)C1(c2cc(C(C)(C)O)on2)CN=C(Nc2c3c(cc4c2CCC4)CCC3)O1 (single isomer, unassigned) [Example 16, Ethyl 2-((1,2,3,5,6,7-hexahydro-s-indacen-4-yl)amino)-5-(5-(2-hydroxypropan-2-yl)isoxazol-3-yl)-4,5-dihydrooxazole-5-carboxylate]
IC50 [1]: < 1000 nM
IC50 [4]: < 1000 nM
IC50 [2]: < 1000 nM
inhibition of IL-1β release in peritoneal lavage samples (FIG. 1) [3]: significant inhibition
% IL-1 beta inhibition vs vehicle (peritoneal lavage samples) [3]: 99%

CCOC(=O)C1(c2cc(C(C)(C)O)on2)CN=C(Nc2c3c(cc4c2CCC4)CCC3)O1 (stereo not drawn) [Example 15, Ethyl 2-((1,2,3,5,6,7-hexahvdro-s-indacen-4-yl)amino)-5-(5-(2-hydroxypropan-2-yl)isoxazol-3-yl)-4,5-dihydrooxazole-5-carboxylate]
IC50 [1]: < 1000 nM
IC50 ([4]; Homo sapiens, 3 h): < 1000 nM

O=C(O)C1(c2ccon2)CN=C(Nc2c3c(cc4c2CCC4)CCC3)O1 (stereo not drawn) [Example 29, 2-((1,2,3,5,6,7-hexahydro-s-indacen-4-yl)amino)-5-(isoxazol-3-yl)-4,5-dihydrooxazole-5-carboxylate]
IC50 [1]: < 1000 nM
IC50 [2]: 1000 to 10000 nM

CCOC(=O)C1(c2nccn2C)CN=C(Nc2c3c(cc4c2CCC4)CCC3)O1 (single isomer, unassigned) [Example 5, Ethyl 2-((1,2,3,5,6,7-hexahydro-s-indacen-4-yl)amino)-5-(1-methyl-1H-imidazol-2-yl)-4,5-dihydrooxazole-5-carboxylate]
IC50 [1]: < 1000 nM
IC50 [4]: < 1000 nM

CCOC(=O)C1(c2ccc(Cl)cc2)CN=C(Nc2c3c(cc4c2CCC4)CCC3)O1 (single isomer, unassigned) [Example 10a, Ethyl 5-(4-chlorophenyl)-2-((1,2,3,5,6,7-hexahydro-s-indacene-4-yl)amino)-4,5-dihydrooxazole-5-carboxylate]
IC50 [1]: < 1000 nM
IC50 [4]: 10000 to 30000 nM

CC(C)(C)OC(=O)C1(c2ccno2)CN=C(Nc2c3c(cc4c2CCC4)CCC3)O1 (racemic) [Example 90, tert-butyl 2-((1,2,3,5,6,7-hexahydro-s-indacen-4-yl)amino)-5-(isoxazol-5-yl)-4,5-dihydrooxazole-5-carboxylate]
IC50 [1]: 1000 to 10000 nM
IC50 ([4]; Homo sapiens, 3 h): < 1000 nM

CCOC(=O)C1(c2cccnc2)CN=C(Nc2c3c(cc4c2CCC4)CCC3)O1 (single isomer, unassigned) [Example 11, Ethyl 2-((1,2,3,5,6,7-hexahydro-s-indacen-4-yl)amino)-5-(pyridin-3-yl)-4,5-dihydrooxazole-5-carboxylate]
IC50 [1]: < 1000 nM
IC50 [4]: < 1000 nM
